Test system: CD45+CD66b−CD14+CD16+ monocytes
Test: Surface CD86 on monocytes by flow cytometry
Assay type: cell-based, human
Conditions: PBMCs treated with MCP-1 for 24 h; CD86 MFI
Procedure: PBMCs were labelled for the investigation of monocytes with the following fluorochrome-labelled antibodies: anti-CD16 (3G8) anti-CD86 (FM95) anti-CD45 (2D1); anti-CD66b (G10F5); CD14 (Tuk4); CD80 (2D10); (Biolegend or Miltenyi). Each staining well contained 4×10^5 cells; cells were stained with LIVE/DEAD Aqua (Molecular Probes) followed by staining for 20 min on ice, washed, and analyzed by flow cytometry immediately. Flow cytometry was carried out on a BD LSR Fortessa cell analyzer and analyzed using FlowJo software (Tree Star).

MCP-1: chemokine monocyte chemoattractant protein CCL2/MCP-1
increase of CD86 membrane expression: ~1.4 fold

Reference: patent publication US20220257633A1, “METHOD OF TREATING AGE-RELATED MACULAR DEGENERATION” (THE PROVOST, FELLOWS, FOUNDATION SCHOLARS, & THE O, priority 2021, published 2022)
